# Assay results from PubChem BioAssay (NCI).
#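 Step 1: Grow cells in 96-well plates. Step 2: Expose to compound for 48 hours at 5 concentrations. Step 3: Interpolate endpoints linearly; if unreached, use highest concentration. Abbreviation: GI50, concentration required for 50% inhibition of growth. TGI: concentration producing complete growth inhibition.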
# Legend:
# Experiment in all cases: NCI tumour cell line growth inhibition, 48 h
# CAKI-1 renal = test system: CAKI-1 renal
# 786-0 renal = test system: 786-0 renal
# CCRF-CEM leukemia = test system: CCRF-CEM leukemia
# UACC-257 melanoma = test system: UACC-257 melanoma
# HT29 colon = test system: HT29 colon
# RPMI-8226 leukemia = test system: RPMI-8226 leukemia
# A549 NSCLC = test system: A549 NSCLC
# SF-268 CNS = test system: SF-268 CNS
# MDA-MB-231 breast = test system: MDA-MB-231 breast
# U251 CNS = test system: U251 CNS
# RXF 393 renal = test system: RXF 393 renal
# HCC-2998 colon = test system: HCC-2998 colon
# KM12 colon = test system: KM12 colon
# SW-620 colon = test system: SW-620 colon
# MDA-MB-435 = test system: MDA-MB-435
# NCI-H226 lung = test system: NCI-H226 lung
# MOLT-4 leukemia = test system: MOLT-4 leukemia
# MCF7 breast = test system: MCF7 breast
# NCI-H522 lung = test system: NCI-H522 lung
# ACHN renal = test system: ACHN renal
# LOX IMVI melanoma = test system: LOX IMVI melanoma
# SK-OV-3 ovarian = test system: SK-OV-3 ovarian
# TK-10 renal = test system: TK-10 renal
# SNB-19 CNS = test system: SNB-19 CNS
# NCI-H23 lung = test system: NCI-H23 lung
# HCT-116 colon = test system: HCT-116 colon
# T-47D breast = test system: T-47D breast
# HS 578T breast = test system: HS 578T breast
# SR leukemia = test system: SR leukemia
# IGROV1 ovarian = test system: IGROV1 ovarian
# OVCAR-8 ovarian = test system: OVCAR-8 ovarian
# SNB-75 CNS = test system: SNB-75 CNS
# HOP-62 NSCLC = test system: HOP-62 NSCLC
# COLO 205 colon = test system: COLO 205 colon
# A498 renal = test system: A498 renal
# HL-60(TB) leukemia = test system: HL-60(TB) leukemia
# HOP-92 NSCLC = test system: HOP-92 NSCLC
# SK-MEL-28 melanoma = test system: SK-MEL-28 melanoma
# BT-549 breast = test system: BT-549 breast
# SK-MEL-5 melanoma = test system: SK-MEL-5 melanoma
# SN12C renal = test system: SN12C renal
# SF-539 CNS = test system: SF-539 CNS
# M14 melanoma = test system: M14 melanoma
# HCT-15 colon = test system: HCT-15 colon
# PC-3 prostate = test system: PC-3 prostate
# UACC-62 melanoma = test system: UACC-62 melanoma
# NCI/ADR-RES ovarian = test system: NCI/ADR-RES ovarian
# OVCAR-5 ovarian = test system: OVCAR-5 ovarian
# UO-31 renal = test system: UO-31 renal
# EKVX NSCLC = test system: EKVX NSCLC
# DU-145 prostate = test system: DU-145 prostate
# SK-MEL-2 melanoma = test system: SK-MEL-2 melanoma
# SF-295 CNS = test system: SF-295 CNS
# MALME-3M melanoma = test system: MALME-3M melanoma
# OVCAR-3 ovarian = test system: OVCAR-3 ovarian
smiles,measurement,setting,value
Cc1cc(N/N=C/c2nc(-c3ccc(Br)cc3)oc2C)c2cc(Br)ccc2n1,GI50,CAKI-1 renal,8.15 µM
same,TGI,CAKI-1 renal,20.6 µM
same,GI50,786-0 renal,1.7 µM
same,TGI,786-0 renal,3.42 µM
same,GI50,CCRF-CEM leukemia,2 µM
same,TGI,CCRF-CEM leukemia,29.7 µM
same,GI50,UACC-257 melanoma,6.9 µM
same,TGI,UACC-257 melanoma,21.9 µM
same,GI50,HT29 colon,3.14 µM
same,TGI,HT29 colon,13.7 µM
same,GI50,RPMI-8226 leukemia,2.37 µM
same,TGI,RPMI-8226 leukemia,6.39 µM
same,GI50,A549 NSCLC,2.2 µM
same,TGI,A549 NSCLC,5.2 µM
same,GI50,SF-268 CNS,6.89 µM
same,TGI,SF-268 CNS,46.2 µM
same,GI50,MDA-MB-231 breast,2.95 µM
same,TGI,MDA-MB-231 breast,10.1 µM
same,GI50,U251 CNS,1.94 µM
same,TGI,U251 CNS,3.75 µM
same,GI50,RXF 393 renal,5 µM
same,TGI,RXF 393 renal,19.8 µM
same,GI50,HCC-2998 colon,7.43 µM
same,TGI,HCC-2998 colon,20.8 µM
same,GI50,KM12 colon,2.25 µM
same,TGI,KM12 colon,5.71 µM
same,GI50,SW-620 colon,2.04 µM
same,TGI,SW-620 colon,4.81 µM
same,GI50,MDA-MB-435,2.25 µM
same,TGI,MDA-MB-435,5.34 µM
same,GI50,NCI-H226 lung,17.9 µM
same,TGI,NCI-H226 lung,48.5 µM
same,GI50,MOLT-4 leukemia,2.65 µM
same,TGI,MOLT-4 leukemia,> 100 µM
same,GI50,MCF7 breast,1.68 µM
same,TGI,MCF7 breast,3.74 µM
same,GI50,NCI-H522 lung,2.21 µM
same,TGI,NCI-H522 lung,5.62 µM
same,GI50,ACHN renal,2.86 µM
same,TGI,ACHN renal,8.05 µM
same,GI50,LOX IMVI melanoma,1.99 µM
same,TGI,LOX IMVI melanoma,4.3 µM
same,GI50,SK-OV-3 ovarian,16.6 µM
same,TGI,SK-OV-3 ovarian,30.2 µM
same,GI50,TK-10 renal,1.97 µM
same,TGI,TK-10 renal,3.93 µM
same,GI50,SNB-19 CNS,3.87 µM
same,TGI,SNB-19 CNS,23.4 µM
same,GI50,NCI-H23 lung,6.25 µM
same,TGI,NCI-H23 lung,22.8 µM
same,GI50,HCT-116 colon,3.52 µM
same,TGI,HCT-116 colon,12.2 µM
same,GI50,T-47D breast,1.88 µM
same,TGI,T-47D breast,3.9 µM
same,GI50,HS 578T breast,4.21 µM
same,TGI,HS 578T breast,26.2 µM
same,GI50,SR leukemia,0.355 µM
same,TGI,SR leukemia,> 100 µM
same,GI50,IGROV1 ovarian,4.55 µM
same,TGI,IGROV1 ovarian,20.2 µM
same,GI50,OVCAR-8 ovarian,2.43 µM
same,TGI,OVCAR-8 ovarian,6.66 µM
same,GI50,SNB-75 CNS,2.17 µM
same,TGI,SNB-75 CNS,6.66 µM
same,GI50,HOP-62 NSCLC,2.32 µM
same,TGI,HOP-62 NSCLC,5.84 µM
same,GI50,COLO 205 colon,4.38 µM
same,TGI,COLO 205 colon,22.1 µM
same,GI50,A498 renal,16.5 µM
same,TGI,A498 renal,53.2 µM
same,GI50,HL-60(TB) leukemia,2.24 µM
same,TGI,HL-60(TB) leukemia,6.28 µM
same,GI50,HOP-92 NSCLC,2.5 µM
same,TGI,HOP-92 NSCLC,14.4 µM
same,GI50,SK-MEL-28 melanoma,2.39 µM
same,TGI,SK-MEL-28 melanoma,6.26 µM
same,GI50,BT-549 breast,10.7 µM
same,TGI,BT-549 breast,23.3 µM
same,GI50,SK-MEL-5 melanoma,13.4 µM
same,TGI,SK-MEL-5 melanoma,26.1 µM
same,GI50,SN12C renal,2.1 µM
same,TGI,SN12C renal,5.36 µM
same,GI50,SF-539 CNS,1.76 µM
same,TGI,SF-539 CNS,3.5 µM
same,GI50,M14 melanoma,3.58 µM
same,TGI,M14 melanoma,13.8 µM
same,GI50,HCT-15 colon,2.88 µM
same,TGI,HCT-15 colon,10.2 µM
same,GI50,PC-3 prostate,2.68 µM
same,TGI,PC-3 prostate,8.75 µM
same,GI50,UACC-62 melanoma,1.91 µM
same,TGI,UACC-62 melanoma,4.58 µM
same,GI50,NCI/ADR-RES ovarian,2.71 µM
same,TGI,NCI/ADR-RES ovarian,9.03 µM
same,GI50,OVCAR-5 ovarian,10.7 µM
same,TGI,OVCAR-5 ovarian,22.5 µM
same,GI50,UO-31 renal,13.9 µM
same,TGI,UO-31 renal,26.8 µM
same,GI50,EKVX NSCLC,19.3 µM
same,TGI,EKVX NSCLC,38.5 µM
same,GI50,DU-145 prostate,3.81 µM
same,TGI,DU-145 prostate,13.9 µM
same,GI50,SK-MEL-2 melanoma,25.6 µM
same,TGI,SK-MEL-2 melanoma,68.1 µM
same,GI50,SF-295 CNS,17.3 µM
same,TGI,SF-295 CNS,32.6 µM
same,GI50,MALME-3M melanoma,2.1 µM
same,TGI,MALME-3M melanoma,4.48 µM
same,GI50,OVCAR-3 ovarian,2.08 µM
same,TGI,OVCAR-3 ovarian,4.25 µM
